Laboratory results as given in EP0326418A1, “GRF analogs” (THE UPJOHN COMPANY, priority 1988, dated 1989).
Like-named read-outs stand apart in the source and are kept apart here. Where a SMILES comes first, the peptide text is derived from it. [ ]: non-standard residue; d: D form. The star is where a group is joined. Desaminotyrosyl = O=C(CCc1ccc(O)cc1)*; Cya = N[C@@H](CS(=O)(=O)O)C(=O)O; X1 = O=C(Cc1ccc(O)cc1)*

Assays:
[1] = system: bovine anterior pituitary cell culture; assay type: cell-based
[2] = proteolytic stability in bovine plasma (HPLC, modified Frohman method); conditions: bovine plasma
[3] = another assay, potency as a fraction of bGRF(1-44)NH₂

Compound | the potency of bGRF(1-44)NH₂ [1] | remaining at 1 h [2] [%] | the potency of bGRF(1-44)NH₂ [1, 3] | potency (in words) ([1]; contemplated, compound not tested)
CC[C@H](C)[C@H](NC(=O)[C@H](C)NC(=O)[C@H](CS(=O)(=O)O)NC(=O)[C@H](C)NC(=O)[C@@H](N)Cc1ccc(O)cc1)C(=O)N[C@@H](Cc1ccccc1)C(=O)N[C@H](C(=O)N[C@@H](CC(N)=O)C(=O)N[C@@H](CO)C(=O)N[C@@H](Cc1ccc(O)cc1)C(=O)N[C@@H](CCCNC(=N)N)C(=O)N[C@@H](CCCCN)C(=O)N[C@H](C(=O)N[C@@H](CC(C)C)C(=O)NCC(=O)N[C@@H](CCC(N)=O)C(=O)N[C@@H](CC(C)C)C(=O)N[C@@H](CO)C(=O)N[C@@H](C)C(=O)N[C@@H](CCCNC(=N)N)C(=O)N[C@@H](CCCCN)C(=O)N[C@@H](CC(C)C)C(=O)N[C@@H](CC(C)C)C(=O)N[C@@H](CCC(N)=O)C(=O)N[C@@H](CS(=O)(=O)O)C(=O)N[C@H](C(=O)N[C@@H](CC(C)C)C(=O)N[C@@H](CC(N)=O)C(=O)N[C@@H](CCCNC(=N)N)C(=O)N[C@@H](CCC(N)=O)C(=O)N[C@@H](CCC(N)=O)C(=O)NCC(N)=O)[C@@H](C)CC)C(C)C)[C@@H](C)O [Compound 2, Cya^3,25, Leu²⁷bGRF(1-32)NH₂] (H-YA[Cya]AIFTNSYRKVLGQLSARKLLQ[Cya]ILNRQQG-NH2) | 0.11 | – | – | –
CC[C@H](C)[C@H](NC(=O)[C@H](C)NC(=O)[C@H](CS(=O)(=O)O)NC(=O)[C@H](C)NC(=O)CCc1ccc(O)cc1)C(=O)N[C@@H](Cc1ccccc1)C(=O)N[C@H](C(=O)N[C@@H](CC(N)=O)C(=O)N[C@@H](CO)C(=O)N[C@@H](Cc1ccc(O)cc1)C(=O)N[C@@H](CCCNC(=N)N)C(=O)N[C@@H](CCCCN)C(=O)N[C@H](C(=O)N[C@@H](CC(C)C)C(=O)NCC(=O)N[C@@H](CCC(N)=O)C(=O)N[C@@H](CC(C)C)C(=O)N[C@@H](CO)C(=O)N[C@@H](C)C(=O)N[C@@H](CCCNC(=N)N)C(=O)N[C@@H](CCCCN)C(=O)N[C@@H](CC(C)C)C(=O)N[C@@H](CC(C)C)C(=O)N[C@@H](CCC(N)=O)C(=O)N[C@@H](CC(=O)O)C(=O)N[C@H](C(=O)N[C@@H](CC(C)C)C(=O)N[C@@H](CC(N)=O)C(=O)N[C@@H](CCCNC(=N)N)C(=O)N[C@@H](CCC(N)=O)C(=O)N[C@@H](CCC(N)=O)C(=O)NCC(N)=O)[C@@H](C)CC)C(C)C)[C@@H](C)O [Compound 5, Desamino-Tyr¹, Cya³, Leu²⁷-bGRF(1-32)NH₂] (Desaminotyrosyl-A[Cya]AIFTNSYRKVLGQLSARKLLQDILNRQQG-NH2) | 1.01 | 76 | – | –
CC[C@H](C)[C@H](NC(=O)[C@H](C)NC(=O)[C@H](CS(=O)(=O)O)NC(=O)[C@@H](C)NC(=O)CCc1ccc(O)cc1)C(=O)N[C@@H](Cc1ccccc1)C(=O)N[C@H](C(=O)N[C@@H](CC(N)=O)C(=O)N[C@@H](CO)C(=O)N[C@@H](Cc1ccc(O)cc1)C(=O)N[C@@H](CCCNC(=N)N)C(=O)N[C@@H](CCCCN)C(=O)N[C@H](C(=O)N[C@@H](CC(C)C)C(=O)NCC(=O)N[C@@H](CCC(N)=O)C(=O)N[C@@H](CC(C)C)C(=O)N[C@@H](CO)C(=O)N[C@@H](C)C(=O)N[C@@H](CCCNC(=N)N)C(=O)N[C@@H](CCCCN)C(=O)N[C@@H](CC(C)C)C(=O)N[C@@H](CC(C)C)C(=O)N[C@@H](CCC(N)=O)C(=O)N[C@@H](CC(=O)O)C(=O)N[C@H](C(=O)N[C@@H](CC(C)C)C(=O)N[C@@H](CC(N)=O)C(=O)N[C@@H](CCCNC(=N)N)C(=O)N[C@@H](CCC(N)=O)C(=O)N[C@@H](CCC(N)=O)C(=O)NCC(N)=O)[C@@H](C)CC)C(C)C)[C@@H](C)O [Compound 6, Desamino-Tyr¹, D-Ala²,, Cya³, Leu²⁷-bGRF(1-32)NH₂] (Desaminotyrosyl-[dA][Cya]AIFTNSYRKVLGQLSARKLLQDILNRQQG-NH2) | 0.26 | 51 | – | –
CC[C@H](C)[C@H](NC(=O)[C@H](C)NC(=O)[C@H](CS(=O)(=O)O)NC(=O)[C@@H](C)NC(=O)CCc1ccc(O)cc1)C(=O)N[C@@H](Cc1ccccc1)C(=O)N[C@H](C(=O)N[C@@H](CC(N)=O)C(=O)N[C@@H](CO)C(=O)N[C@@H](Cc1ccc(O)cc1)C(=O)N[C@@H](CCCNC(=N)N)C(=O)N[C@@H](CCCCN)C(=O)N[C@H](C(=O)N[C@@H](CC(C)C)C(=O)N[C@@H](C)C(=O)N[C@@H](CCC(N)=O)C(=O)N[C@@H](CC(C)C)C(=O)N[C@@H](CO)C(=O)N[C@@H](C)C(=O)N[C@@H](CCCNC(=N)N)C(=O)N[C@@H](CCCCN)C(=O)N[C@@H](CC(C)C)C(=O)N[C@@H](CC(C)C)C(=O)N[C@@H](CCC(N)=O)C(=O)N[C@@H](CC(=O)O)C(=O)N[C@H](C(=O)N[C@@H](CC(C)C)C(=O)N[C@@H](CC(N)=O)C(=O)N[C@@H](CCCNC(=N)N)C(=O)N[C@@H](CCC(N)=O)C(=O)N[C@@H](CCC(N)=O)C(=O)NCC(N)=O)[C@@H](C)CC)C(C)C)[C@@H](C)O [Compound 10, Desamino-Tyr¹, D-Ala², Cya³, Ala¹⁵, Leu²⁷-bGRF(1-32)NH₂] (Desaminotyrosyl-[dA][Cya]AIFTNSYRKVLAQLSARKLLQDILNRQQG-NH2) | 1.40 | – | – | –
CC[C@H](C)[C@H](NC(=O)[C@H](C)NC(=O)[C@H](CS(=O)(=O)O)NC(=O)[C@H](C)NC(=O)CCc1ccc(O)cc1)C(=O)N[C@@H](Cc1ccccc1)C(=O)N[C@H](C(=O)N[C@@H](CO)C(=O)N[C@@H](CO)C(=O)N[C@@H](Cc1ccc(O)cc1)C(=O)N[C@@H](CCCNC(=N)N)C(=O)N[C@@H](CCCNC(=N)N)C(=O)N[C@H](C(=O)N[C@@H](CC(C)C)C(=O)N[C@@H](C)C(=O)N[C@@H](CCC(N)=O)C(=O)N[C@@H](CC(C)C)C(=O)N[C@@H](CO)C(=O)N[C@@H](C)C(=O)N[C@@H](CCCNC(=N)N)C(=O)N[C@@H](CCCNC(=N)N)C(=O)N[C@@H](CC(C)C)C(=O)N[C@@H](CC(C)C)C(=O)N[C@@H](CCC(N)=O)C(=O)N[C@@H](CC(=O)O)C(=O)N[C@H](C(=O)N[C@@H](CC(C)C)C(=O)N[C@@H](CO)C(=O)N[C@@H](CCCNC(=N)N)C(=O)N[C@@H](CCC(N)=O)C(=O)N[C@@H](CCC(N)=O)C(=O)NCC(N)=O)[C@@H](C)CC)C(C)C)[C@@H](C)O [Compound 12, DesaminoTyr¹, Cya³, Ser⁸, Arg¹², Ala¹⁵, Leu²⁷, Ser²⁸, bGRF(1-32)NH₂] (Desaminotyrosyl-A[Cya]AIFTSSYRRVLAQLSARRLLQDILSRQQG-NH2) | – | 67 | 0.54 | –
CC[C@H](C)[C@H](NC(=O)[C@H](C)NC(=O)[C@H](CC(=O)O)NC(=O)[C@H](C)NC(=O)CCc1ccc(O)cc1)C(=O)N[C@@H](Cc1ccccc1)C(=O)N[C@H](C(=O)N[C@@H](CO)C(=O)N[C@@H](CO)C(=O)N[C@@H](Cc1ccc(O)cc1)C(=O)N[C@@H](CCCNC(=N)N)C(=O)N[C@@H](CCCNC(=N)N)C(=O)N[C@H](C(=O)N[C@@H](CC(C)C)C(=O)N[C@@H](C)C(=O)N[C@@H](CCC(N)=O)C(=O)N[C@@H](CC(C)C)C(=O)N[C@@H](CO)C(=O)N[C@@H](C)C(=O)N[C@@H](CCCNC(=N)N)C(=O)N[C@@H](CCCNC(=N)N)C(=O)N[C@@H](CC(C)C)C(=O)N[C@@H](CC(C)C)C(=O)N[C@@H](CCC(N)=O)C(=O)N[C@@H](CS(=O)(=O)O)C(=O)N[C@H](C(=O)N[C@@H](CC(C)C)C(=O)N[C@@H](CO)C(=O)N[C@@H](CCCNC(=N)N)C(=O)N[C@@H](CCC(N)=O)C(=O)N[C@@H](CCC(N)=O)C(=O)NCC(N)=O)[C@@H](C)CC)C(C)C)[C@@H](C)O [Compound 14, DesaminoTyr¹, Ser⁸, Arg¹², Ala¹⁵, Cya²⁵, Leu²⁷, Ser²⁸, bGRF(1-32)NH₂] (Desaminotyrosyl-ADAIFTSSYRRVLAQLSARRLLQ[Cya]ILSRQQG-NH2) | – | 65 | 1.21 | –
CC[C@H](C)[C@H](NC(=O)[C@H](C)NC(=O)[C@H](CC(=O)O)NC(=O)[C@H](C)NC(=O)Cc1ccc(O)cc1)C(=O)N[C@@H](Cc1ccccc1)C(=O)N[C@H](C(=O)N[C@@H](CO)C(=O)N[C@@H](CO)C(=O)N[C@@H](Cc1ccc(O)cc1)C(=O)N[C@@H](CCCNC(=N)N)C(=O)N[C@@H](CCCNC(=N)N)C(=O)N[C@H](C(=O)N[C@@H](CC(C)C)C(=O)N[C@@H](C)C(=O)N[C@@H](CCC(N)=O)C(=O)N[C@@H](CC(C)C)C(=O)N[C@@H](CO)C(=O)N[C@@H](C)C(=O)N[C@@H](CCCNC(=N)N)C(=O)N[C@@H](CCCNC(=N)N)C(=O)N[C@@H](CC(C)C)C(=O)N[C@@H](CC(C)C)C(=O)N[C@@H](CCC(N)=O)C(=O)N[C@@H](CS(=O)(=O)O)C(=O)N[C@H](C(=O)N[C@@H](CC(C)C)C(=O)N[C@@H](CO)C(=O)N[C@@H](CCCNC(=N)N)C(=O)N[C@@H](CCC(N)=O)C(=O)N[C@@H](CCC(N)=O)C(=O)NCC(N)=O)[C@@H](C)CC)C(C)C)[C@@H](C)O [Compound 15, Desamino PHPG¹, Ser⁸, Arg¹², Ala¹⁵, Cya²⁵, Leu²⁷, Ser²⁸, bGRF(1-32)NH₂] (X1-ADAIFTSSYRRVLAQLSARRLLQ[Cya]ILSRQQG-NH2) | – | 65 | 0.97 | –
DesaminoTyr¹, Cya³, Ser⁸, Arg¹², Ala¹⁵, Arg²¹, Leu²⁷, Ser²⁸, Hse³³ bGRF(1-33)lactone [Compound 20] | – | – | – | high potency
